Assays:
human mGlu2 receptors = biological target: T1, human mGlu2 receptors (Homo sapiens, UniProt Q14416); experiment: mGlu2 receptor cAMP antagonist assay; assay type: cell-based; conditions: reversal of DCG IV (EC90) inhibition of forskolin-stimulated cAMP; AV12 cells
T1 construct: expressed in transfected cells; host or cells: AV12 cells, co-expressing rat EAAT1
Protocol: mGlu2 and mGlu3 Receptor cAMP Antagonist Assays
Antagonist activity is assayed in recombinant AV12 cells stably expressing human mGlu2 or mGlu3 receptors and the rat glutamate transporter EAAT1 (Excitatory Amino Acid Transporter 1). The cell lines are maintained by culturing in DMEM with high glucose and pyridoxine hydrochloride supplemented with 5% dialyzed fetal bovine serum (FBS), 1 mM sodium pyruvate, 1 mM HEPES and 1 mM L-glutamine; geneticin and hygromycin B are used as selection antibiotics.
Reversal of the inhibition of forskolin-stimulated cAMP production by test compounds is measured using homogeneous time resolved fluorescence technology (HTRF; Cisbio cat #62AM4PEB). The medium is removed and the cells are incubated with 100 μl cAMP stimulation buffer (STIM) for 30 minutes at 37° C. […] Cells are incubated at 37° C. for 20 minutes. To measure the cAMP levels, cAMP-d2 conjugate and anti cAMP-cryptate conjugate in lysis buffer are incubated with the treated cells at room temperature for 1 hour (mGlu2) or 1.5 hour (mGlu3). […] The raw data are converted to cAMP amount (pmole/well) using a cAMP standard curve generated for each experiment. Relative IC50 values are calculated from the top-bottom range of the concentration response curve using a four-parameter logistic curve fitting program (ActivityBase v5.3.1.22).

hERG channel = hERG channel (Homo sapiens, UniProt Q12809); experiment: Off-target activity, known assay methods: hERG
Chain of hERG channel (Q12809 whole entry): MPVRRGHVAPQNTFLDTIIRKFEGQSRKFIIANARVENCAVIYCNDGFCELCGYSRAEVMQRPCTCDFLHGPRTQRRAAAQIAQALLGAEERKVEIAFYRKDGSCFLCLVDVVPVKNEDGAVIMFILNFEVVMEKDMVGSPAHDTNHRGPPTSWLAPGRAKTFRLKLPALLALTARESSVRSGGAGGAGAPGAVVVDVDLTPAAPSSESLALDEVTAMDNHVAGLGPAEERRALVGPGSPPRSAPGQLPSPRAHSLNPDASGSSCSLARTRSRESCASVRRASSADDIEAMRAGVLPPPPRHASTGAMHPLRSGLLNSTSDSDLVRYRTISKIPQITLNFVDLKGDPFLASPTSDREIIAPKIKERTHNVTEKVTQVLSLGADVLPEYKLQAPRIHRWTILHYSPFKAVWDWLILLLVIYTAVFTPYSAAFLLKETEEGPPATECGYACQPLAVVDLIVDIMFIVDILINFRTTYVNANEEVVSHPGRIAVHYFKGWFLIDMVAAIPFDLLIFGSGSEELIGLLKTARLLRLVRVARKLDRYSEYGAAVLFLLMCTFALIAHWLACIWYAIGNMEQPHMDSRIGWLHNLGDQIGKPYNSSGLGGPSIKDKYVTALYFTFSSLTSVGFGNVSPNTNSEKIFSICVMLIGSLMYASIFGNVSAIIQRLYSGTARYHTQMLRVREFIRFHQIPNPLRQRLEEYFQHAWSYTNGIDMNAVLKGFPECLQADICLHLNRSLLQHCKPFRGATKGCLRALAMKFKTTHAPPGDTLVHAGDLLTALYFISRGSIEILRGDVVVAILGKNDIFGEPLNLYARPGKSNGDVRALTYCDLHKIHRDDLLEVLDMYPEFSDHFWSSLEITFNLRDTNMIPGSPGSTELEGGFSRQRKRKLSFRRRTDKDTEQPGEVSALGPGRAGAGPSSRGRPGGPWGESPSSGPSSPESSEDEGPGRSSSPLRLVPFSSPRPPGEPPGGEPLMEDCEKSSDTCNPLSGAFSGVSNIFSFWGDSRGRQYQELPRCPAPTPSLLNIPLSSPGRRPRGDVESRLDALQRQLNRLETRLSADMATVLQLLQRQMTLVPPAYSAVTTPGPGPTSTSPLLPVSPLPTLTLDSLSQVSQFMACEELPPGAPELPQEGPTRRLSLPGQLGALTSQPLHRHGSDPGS
From the text: (§1) Further, certain compounds of the present invention show a lack of significant activity at other physiologically important receptors such as, but not limited to, the hERG channel, serotonin receptors (specifically 5-HT2A and 5-HT2B), muscarinic receptors (specifically M2), and iGluR receptors (specifically iGluR5).

[1] = biological target: serotonin receptor 5-HT2A (Homo sapiens, UniProt P28223); experiment: Off-target activity, known assay methods: 5-HT2A
Chain of serotonin receptor 5-HT2A (P28223 whole entry): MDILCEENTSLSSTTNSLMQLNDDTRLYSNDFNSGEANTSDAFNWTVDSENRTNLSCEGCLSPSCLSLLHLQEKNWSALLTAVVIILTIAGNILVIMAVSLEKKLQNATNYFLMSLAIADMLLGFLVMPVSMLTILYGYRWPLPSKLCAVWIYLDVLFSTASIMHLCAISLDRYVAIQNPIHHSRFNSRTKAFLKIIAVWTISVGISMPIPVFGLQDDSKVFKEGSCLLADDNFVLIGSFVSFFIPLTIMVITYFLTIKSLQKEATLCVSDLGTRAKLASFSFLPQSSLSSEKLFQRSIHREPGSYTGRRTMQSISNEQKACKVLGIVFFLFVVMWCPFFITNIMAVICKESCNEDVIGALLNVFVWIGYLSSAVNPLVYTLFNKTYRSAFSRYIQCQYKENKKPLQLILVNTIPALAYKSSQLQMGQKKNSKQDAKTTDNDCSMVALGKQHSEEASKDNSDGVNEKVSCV
From the text: as §1

[2] = biological target: serotonin receptor 5-HT2B (Homo sapiens, UniProt P41595); experiment: Off-target activity, known assay methods: 5-HT2B
Chain of serotonin receptor 5-HT2B (P41595 whole entry): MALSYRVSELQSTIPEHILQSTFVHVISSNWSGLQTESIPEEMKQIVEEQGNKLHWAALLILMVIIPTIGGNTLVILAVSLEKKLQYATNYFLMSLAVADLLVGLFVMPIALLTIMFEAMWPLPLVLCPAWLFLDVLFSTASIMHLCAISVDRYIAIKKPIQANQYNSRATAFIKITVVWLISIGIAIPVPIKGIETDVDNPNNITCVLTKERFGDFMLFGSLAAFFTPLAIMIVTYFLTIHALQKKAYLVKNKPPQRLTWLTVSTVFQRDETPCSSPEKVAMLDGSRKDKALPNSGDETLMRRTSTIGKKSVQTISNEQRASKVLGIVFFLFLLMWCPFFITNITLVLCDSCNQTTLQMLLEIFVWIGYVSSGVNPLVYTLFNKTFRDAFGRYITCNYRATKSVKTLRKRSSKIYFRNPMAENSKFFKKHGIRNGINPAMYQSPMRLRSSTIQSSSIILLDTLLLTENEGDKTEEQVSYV
From the text: as §1

muscarinic receptor M2 = biological target: T2, muscarinic receptor M2 (Homo sapiens, UniProt P08172); experiment: Off-target activity, known assay methods: M2
T2 sequence (P08172 1-466): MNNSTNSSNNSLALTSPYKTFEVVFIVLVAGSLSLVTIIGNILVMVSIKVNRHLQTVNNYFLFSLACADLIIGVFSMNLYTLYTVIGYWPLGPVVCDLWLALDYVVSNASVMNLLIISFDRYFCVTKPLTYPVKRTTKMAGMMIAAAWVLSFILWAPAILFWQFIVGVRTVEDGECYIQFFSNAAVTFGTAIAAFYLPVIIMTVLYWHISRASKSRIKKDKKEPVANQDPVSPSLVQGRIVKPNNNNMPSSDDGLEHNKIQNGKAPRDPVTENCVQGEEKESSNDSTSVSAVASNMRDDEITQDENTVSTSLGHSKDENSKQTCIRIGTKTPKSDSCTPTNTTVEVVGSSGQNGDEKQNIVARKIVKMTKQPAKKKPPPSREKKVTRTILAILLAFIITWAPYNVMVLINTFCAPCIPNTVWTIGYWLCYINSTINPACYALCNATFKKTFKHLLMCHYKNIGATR
From the text: as §1

iGluR5 = iGluR5 (Homo sapiens, UniProt P39086); experiment: Off-target activity, known assay methods: iGluR5
Chain of iGluR5 (P39086 31-918): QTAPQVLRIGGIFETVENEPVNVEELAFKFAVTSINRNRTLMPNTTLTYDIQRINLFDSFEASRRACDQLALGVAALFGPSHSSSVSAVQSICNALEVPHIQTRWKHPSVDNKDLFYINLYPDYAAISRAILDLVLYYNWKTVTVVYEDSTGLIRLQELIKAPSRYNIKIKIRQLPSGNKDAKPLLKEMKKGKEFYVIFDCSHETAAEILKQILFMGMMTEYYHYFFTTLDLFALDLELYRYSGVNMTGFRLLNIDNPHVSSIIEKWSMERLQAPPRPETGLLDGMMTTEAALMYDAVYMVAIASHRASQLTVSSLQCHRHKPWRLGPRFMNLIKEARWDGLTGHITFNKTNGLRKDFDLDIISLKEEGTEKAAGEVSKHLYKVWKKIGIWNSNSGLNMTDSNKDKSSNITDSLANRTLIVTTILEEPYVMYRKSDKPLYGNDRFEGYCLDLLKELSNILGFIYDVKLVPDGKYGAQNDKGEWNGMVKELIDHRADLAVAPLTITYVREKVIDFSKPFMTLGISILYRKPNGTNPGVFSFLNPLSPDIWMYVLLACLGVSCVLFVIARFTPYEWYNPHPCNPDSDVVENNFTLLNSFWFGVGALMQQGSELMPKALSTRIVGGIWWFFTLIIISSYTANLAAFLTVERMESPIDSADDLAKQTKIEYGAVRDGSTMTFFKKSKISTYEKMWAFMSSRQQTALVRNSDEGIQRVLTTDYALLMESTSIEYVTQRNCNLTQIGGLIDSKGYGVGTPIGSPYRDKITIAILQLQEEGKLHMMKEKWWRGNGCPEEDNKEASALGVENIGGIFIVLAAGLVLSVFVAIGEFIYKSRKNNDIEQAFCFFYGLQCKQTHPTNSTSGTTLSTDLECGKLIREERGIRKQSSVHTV
From the text: as §1

mGlu2+/+ mice = experiment: mFST in mGlu2+/+ littermate mice; assay type: in vivo, mouse; conditions: 10 mg/kg, i.p., 30 min prior

T1 sequence (Q14416 19-872): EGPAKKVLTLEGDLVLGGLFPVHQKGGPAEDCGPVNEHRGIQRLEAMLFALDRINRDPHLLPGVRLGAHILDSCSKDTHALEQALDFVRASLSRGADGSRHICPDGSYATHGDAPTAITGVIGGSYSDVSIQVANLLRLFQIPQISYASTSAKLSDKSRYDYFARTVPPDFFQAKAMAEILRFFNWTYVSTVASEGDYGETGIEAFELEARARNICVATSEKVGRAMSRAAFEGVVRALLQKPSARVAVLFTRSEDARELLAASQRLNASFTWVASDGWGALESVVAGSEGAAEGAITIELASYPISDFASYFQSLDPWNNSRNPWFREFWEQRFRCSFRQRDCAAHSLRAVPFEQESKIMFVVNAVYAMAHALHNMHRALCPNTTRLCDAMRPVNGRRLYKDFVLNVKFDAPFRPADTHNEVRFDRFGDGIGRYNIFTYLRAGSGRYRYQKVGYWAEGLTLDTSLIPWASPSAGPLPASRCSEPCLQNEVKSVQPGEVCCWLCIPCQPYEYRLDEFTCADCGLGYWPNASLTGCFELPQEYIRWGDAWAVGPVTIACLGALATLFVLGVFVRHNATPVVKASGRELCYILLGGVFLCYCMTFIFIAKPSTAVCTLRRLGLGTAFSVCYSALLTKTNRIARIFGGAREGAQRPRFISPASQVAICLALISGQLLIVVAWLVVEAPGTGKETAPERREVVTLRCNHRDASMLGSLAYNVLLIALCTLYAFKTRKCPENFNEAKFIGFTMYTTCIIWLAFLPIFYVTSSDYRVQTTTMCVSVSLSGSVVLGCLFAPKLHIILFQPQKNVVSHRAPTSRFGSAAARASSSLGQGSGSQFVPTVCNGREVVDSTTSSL

N[C@]1(C(=O)O)[C@@H]2[C@@H](C(=O)O)[C@@H]2[C@H](O)[C@H]1OCc1ccc(Cl)c(Cl)c1 [Example 1, (1S,2R,3S,4S,5R,6R)-2-Amino-3-[(3,4-dichlorobenzyl)oxy]-4-hydroxybicyclo[3.1.0]hexane-2,6-dicarboxylic acid]
IC50 (human mGlu2 receptors): 43.3 ± 5.8 nM
activity at the hERG channel (hERG channel): no appreciable activity
activity at 5-HT2A [1]: no appreciable activity
activity at 5-HT2B [2]: no appreciable activity
activity at M2 (muscarinic receptor M2): no appreciable activity
activity at iGluR5 (iGluR5): no appreciable activity
immobility time (mGlu2+/+ mice): significantly decrease immobility time

N[C@]1(C(=O)O)[C@@H]2[C@@H](C(=O)O)[C@@H]2[C@H](Sc2nc[nH]n2)[C@H]1OCc1ccc(Cl)c(Cl)c1 [Example 2, (1R,2R,3S,4S,5R,6R)-2-Amino-3-[(3,4-dichlorobenzyl)oxy]-4-(1H-1,2,4-triazol-3-ylsulfanyl)bicyclo[3.1.0]hexane-2,6-dicarboxylic acid]
IC50 (human mGlu2 receptors): 13.1 ± 1.9 nM

CC(=O)N[C@H]1[C@H]2[C@H](C(=O)O)[C@H]2[C@](N)(C(=O)O)[C@@H]1OCc1ccc(Cl)c(Cl)c1 [Example 4, (1S,2R,3R,4S,5R,6S)-4-(Acetylamino)-2-amino-3-[(3,4-dichlorobenzyl)oxy]bicyclo[3.1.0]hexane-2,6-dicarboxylic acid]
IC50 (human mGlu2 receptors): 25.5 ± 2.8 nM

Cl.Cn1cnc(S[C@H]2[C@H]3[C@H](C(=O)O)[C@H]3[C@](N)(C(=O)O)[C@@H]2OCc2ccc(Cl)c(Cl)c2)n1 [Example 7, (1R,2R,3S,4S,5R,6R)-2-Amino-3-[(3,4-dichlorophenyl)methoxy]-4-[(1-methyl-1,2,4-triazol-3-yl)sulfanyl]bicyclo[3.1.0]hexane-2,6-dicarboxylic acid hydrochloride.]
IC50 (human mGlu2 receptors): 52 ± 17.9 nM

Cl.N[C@]1(C(=O)O)[C@@H]2[C@@H](C(=O)O)[C@@H]2[C@H](NC(=O)CO)[C@H]1OCc1ccc(Cl)c(Cl)c1 [Example 9, (1S,2R,3R,4S,5R,6S)-2-Amino-3-[(3,4-dichlorobenzyl)oxy]-4-[(hydroxyacetyl)amino]bicyclo[3.1.0]hexane-2,6-dicarboxylic acid hydrochloride]
IC50 (human mGlu2 receptors): 22 ± 3 nM
